Source: patent US9260505B2, “Methods for screening for binding partners of G-protein coupled receptors” (Heptares Therapeutics Limited, priority 2007, dated 2016)
Like-named read-outs stand apart in the source and are kept apart here.

What was measured:
βAR-m23 = βAR-m23 (Meleagris gallopavo, UniProt P07700, A282L/C116L/F327A/F338M/M90V/R68S/Y227A); format: binding, turkey
A2aR mutant Rag 23 = conditions: detergent-solubilised
[1] = Thermostability of β adrenergic receptors expressed in mammalian cells, minus-ligand format (FIG. 26); conditions: 0.1% dodecylmaltoside, apo-state heated, 3H-DHA
Text: The resulting mutants were transiently expressed in mammalian cells, solubilised in 0.1% dodecylmaltoside and assayed for thermostability in the minus-ligand format (heating the apo-state, quenching on ice, adding 3H-DHA).

βAR-m23, sequence (P07700 34-424 R68S/M90V/C116L/Y227A/A282L/F327A/F338M): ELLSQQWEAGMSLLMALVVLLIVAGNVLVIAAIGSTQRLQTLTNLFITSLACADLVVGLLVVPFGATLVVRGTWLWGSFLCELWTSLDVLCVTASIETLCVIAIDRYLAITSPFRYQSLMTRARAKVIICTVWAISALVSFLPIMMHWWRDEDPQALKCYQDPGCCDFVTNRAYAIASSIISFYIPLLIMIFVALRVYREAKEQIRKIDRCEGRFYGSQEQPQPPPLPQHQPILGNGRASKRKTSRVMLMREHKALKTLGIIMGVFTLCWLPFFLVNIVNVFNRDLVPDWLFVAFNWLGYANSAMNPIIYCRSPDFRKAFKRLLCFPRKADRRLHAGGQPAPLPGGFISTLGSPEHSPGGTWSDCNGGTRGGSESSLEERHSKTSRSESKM

## 1-[4,6-propyl-^3H]-dihydroalprenolol [[^3H]-dihydroalprenolol]
βAR-m23; membranes, n=2
  Kd: 6.5 ± 0.2 nM
βAR-m23; semipurified receptor
  Kd: 12.5 nM

## CCNC(=O)[C@H]1O[C@@H](n2cnc3c(N)ncnc32)[C@H](O)[C@@H]1O [[^3H]NECA]
A2aR mutant Rag 23
  Kd: 21 ± 1 nM

## human β1: human β1 adrenergic receptor
[1]
  apparent Tm: ~12 °C

## turkey β1: turkey β1 adrenergic receptor transiently expressed in mammalian cells
[1]
  apparent Tm: 23 °C
